In patent US6894053B2, “Serotonergic agents with long-acting in vivo effects” (Wyeth, priority 2001, dated 2005):
Counter-ions that a name gives are not always drawn. One block for each compound: values may come before it.

Columns and labels:
5-HT1A [1] = molecular target: T1, 5-HT1A (Rattus norvegicus, UniProt P19327); assay: Ex vivo binding of [3H]-WAY-100635: 5-HT1A receptor occupancy in rat brain; conditions: for [3H]-WAY-100635 remaining in membrane preparation: 3 mg/kg ip
T1 construct: from tissue; host or cells: rat brain (cortex and hippocampus membranes in the ex vivo assay; whole animal in the behavioural model)
T1 sequence (P19327 1-422): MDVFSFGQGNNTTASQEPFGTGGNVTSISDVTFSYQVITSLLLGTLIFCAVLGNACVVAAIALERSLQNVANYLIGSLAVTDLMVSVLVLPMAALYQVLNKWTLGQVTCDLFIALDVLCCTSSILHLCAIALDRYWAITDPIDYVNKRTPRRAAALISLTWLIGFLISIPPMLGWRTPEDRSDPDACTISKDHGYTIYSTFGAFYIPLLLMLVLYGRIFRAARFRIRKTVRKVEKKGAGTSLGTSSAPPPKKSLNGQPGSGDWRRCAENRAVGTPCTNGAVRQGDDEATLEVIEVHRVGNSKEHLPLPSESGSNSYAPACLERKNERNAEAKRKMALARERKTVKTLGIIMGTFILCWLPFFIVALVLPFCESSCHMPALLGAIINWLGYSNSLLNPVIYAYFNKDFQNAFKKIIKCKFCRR
Protocol: The serotonergic 5-HT1A receptor occupancy in vivo of the compounds of this invention was determined using ex vivo binding techniques. Rats were injected with a 3 mg/kg ip dose of Example 1 or vehicle and then sacrificed after 1, 24, 72, 168, and 336 hours. […] Tissue was prepared by homogenization and washed once with buffer. Serotonergic 5-HT1A receptors were measured in the membrane preparation using the standard 5-HT1A receptor antagonist [^3H]-WAY-100635 (85 Ci/mmol). Specific binding was determined in the presence of […] methiothepin. The ability of the test compounds to displace [^3H]-WAY-100635 from the 5-HT1A receptor was then determined and expressed as the fmol/mg protein of [^3H]-WAY-100635 remaining in the membrane preparation after treatment with the test compound.

5-HT1A [2] = molecular target: T1, 5-HT1A; assay: Fixed Responding Model (fixed-ratio 30 food schedule), antagonism of 8-OH-DPAT; assay type: in vivo
Protocol: The ability of the compounds of this invention to function in vivo as 5-HT1A antagonists was assessed in rats using a Fixed Responding Model (Blackman, D., in, “Operant Conditioning: An Experimental Analysis of Behavior”, J. Butcher, Ed., Methuen and Co., Ltd., London). In this model rats are trained to respond (lever pressing) under a fixed-ratio 30 schedule of food presentation in order to receive a food pellet reinforcer. […] 5-HT1A antagonist activity is assessed by determining the test compound's ability to antagonize this decrease in response rate induced by administration of the agonist.

- [3H]-WAY-100635 remaining in membrane preparation (5-HT1A [1]; 1 hour, cortex): 4.0 ± 0.1 fmol/mg protein
- [3H]-WAY-100635 remaining in membrane preparation (5-HT1A [1]; 1 hour, striat.): 6.0 ± 0.3 fmol/mg protein
- [3H]-WAY-100635 remaining in membrane preparation (5-HT1A [1]; 24 hour, cortex): 8.0 ± 0.6 fmol/mg protein
- [3H]-WAY-100635 remaining in membrane preparation (5-HT1A [1]; 24 hour, striat.): 12.0 ± 2.7 fmol/mg protein
- [3H]-WAY-100635 remaining in membrane preparation (5-HT1A [1]; 72 hours, cortex): 9.0 ± 0.6 fmol/mg protein
- [3H]-WAY-100635 remaining in membrane preparation (5-HT1A [1]; 72 hours, striat.): 14.0 ± 2.3 fmol/mg protein
- [3H]-WAY-100635 remaining in membrane preparation (5-HT1A [1]; 7 days, cortex): 7.0 ± 0.3 fmol/mg protein
- [3H]-WAY-100635 remaining in membrane preparation (5-HT1A [1]; 7 days, striat.): 15.0 ± 1.7 fmol/mg protein
- [3H]-WAY-100635 remaining in membrane preparation (5-HT1A [1]; 14 days, cortex): 11.0 ± 0.3 fmol/mg protein
- [3H]-WAY-100635 remaining in membrane preparation (5-HT1A [1]; 14 days, striat.): 26.0 ± 0.6 fmol/mg protein
- Duration of significant inhibition of WAY-100635 binding after a single administration (5-HT1A [1]; single administration, ex vivo binding): up to 14 days
- Reversal of the effect of 8-OH-DPAT on response rate (5-HT1A [2]; 3 mg/kg sc vs 8-OH-DPAT 1 mg/kg sc): completely reverses
- Response Rate (5-HT1A [2]; 8-OH-DPAT (1 mg/kg sc) + test compound 3 mg/kg sc): 2.4 ± 0.3 responses/second
- Duration of significant inhibition of the 8-OH-DPAT-induced decrease in responding (5-HT1A [2]; single dose 3 mg/kg sc, daily 8-OH-DPAT 1 mg/kg sc): up to 17 days
- Response Rate (5-HT1A [2]; single dose 3 mg/kg sc, daily 8-OH-DPAT 1 mg/kg sc, Day 1): 2.4 ± 0.3 responses/second
- Response Rate (5-HT1A [2]; single dose 3 mg/kg sc, daily 8-OH-DPAT 1 mg/kg sc, Day 4): 2.1 ± 0.3 responses/second
- Response Rate (5-HT1A [2]; single dose 3 mg/kg sc, daily 8-OH-DPAT 1 mg/kg sc, Day 7): 2.0 ± 0.3 responses/second
- Response Rate (5-HT1A [2]; single dose 3 mg/kg sc, daily 8-OH-DPAT 1 mg/kg sc, Day 11): 1.8 ± 0.2 responses/second
- Response Rate (5-HT1A [2]; single dose 3 mg/kg sc, daily 8-OH-DPAT 1 mg/kg sc, Day 14): 1.7 ± 0.3 responses/second
- Response Rate (5-HT1A [2]; single dose 3 mg/kg sc, daily 8-OH-DPAT 1 mg/kg sc, Day 17): 1.0 ± 0.2 responses/second
- Response Rate (5-HT1A [2]; single dose 3 mg/kg sc, daily 8-OH-DPAT 1 mg/kg sc, Day 21): 0.7 ± 0.2 responses/second
Compound: COc1ccccc1N1CCN(C[C@@H](CC2CCCCC2)NC(=O)C2(C)CCCCC2)CC1 [Example 1, 1-Methyl-cyclohexanecarboxylic acid {(1R)-1-cyclohexylmethyl-2-[4-(2-methoxyphenyl)-piperazin-1-yl]-ethyl}-amide hydrochloride hydrate]

- melting point: 119 to 121 °C
Compound: COc1ccccc1N1CCN(C[C@@H](CC2CCCCC2)NC(=O)C2(C)CCCCC2)CC1 (as salt: hydrochloride) (hydrate or solvate) [Example 1, 1-Methyl-cyclohexanecarboxylic acid {(1R)-1-cyclohexylmethyl-2-[4-(2-methoxyphenyl)-piperazin-1-yl]-ethyl}-amide hydrochloride hydrate]
